pIC50: −log10 of the molar value.

As usually defined, the pIC50 is the IC50 on a negative log10 scale, so that one unit is a factor of ten. The low end stands for a large IC50, the high end for a small IC50.

Experiment [1] addresses T1, steroid sulfatase (Homo sapiens, UniProt P08842).
T1 construct: JEG-3 which constitutively expresses high amount of aromatase and steroid sulfatase; endogenous in cells; host or cells: JEG-3
T1 sequence (P08842 22-583): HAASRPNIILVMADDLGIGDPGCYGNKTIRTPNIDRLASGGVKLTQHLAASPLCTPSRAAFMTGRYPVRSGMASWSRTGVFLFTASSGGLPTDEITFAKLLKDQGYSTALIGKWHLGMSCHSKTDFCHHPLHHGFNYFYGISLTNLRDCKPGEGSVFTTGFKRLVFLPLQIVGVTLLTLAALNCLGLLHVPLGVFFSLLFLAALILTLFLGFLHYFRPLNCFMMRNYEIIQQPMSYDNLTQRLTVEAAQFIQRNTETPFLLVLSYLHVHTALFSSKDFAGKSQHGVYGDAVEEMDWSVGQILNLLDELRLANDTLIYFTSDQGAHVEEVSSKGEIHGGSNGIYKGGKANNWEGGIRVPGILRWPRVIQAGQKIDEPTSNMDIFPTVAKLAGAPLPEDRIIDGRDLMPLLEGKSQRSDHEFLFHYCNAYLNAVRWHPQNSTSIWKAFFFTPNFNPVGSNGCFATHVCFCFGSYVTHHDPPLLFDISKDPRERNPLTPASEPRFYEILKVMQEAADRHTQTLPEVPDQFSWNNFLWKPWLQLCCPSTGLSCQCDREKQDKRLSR
Description: Steroid sulfatase (STS) inhibition assay in JEG-3 cells ([6,7-3H] estrone sulfate). It is filed as cell-based. Conditions: 1 hour at 37° C., duplicate. How it is done:
(§1) Aromatase and steroid sulfatase enzymes inhibitions were evaluated in the human chorionic carcinoma cell line JEG-3 which constitutively expresses high amount of aromatase and steroid sulfatase.
For STS assay, JEG-3 cells were seeded into 24-well culture plates at 150,000 cells/ml/well and maintained in MEM containing supplements overnight. When reaching 80% confluent, the cells were washed once with serum-free MEM, loaded with 1 ml of substrate mix containing [6,7-3H] Estrone sulfate (E1S, 0.6 μCi/ml) and [4-14C] Estrone (E1, 4 nCi/ml) in the presence of compounds in a concentration series, and incubated for 1 hour at 37° C. The product [3H]E1 was separated from E1S by toluene partition using [4-14C]E1 to monitor extraction procedural losses, and the toluene fraction radioactivity was measured by a MicroBeta scintillation counter.
(§2) Experiments are performed in duplicate. The inhibitory concentration of 50% of the enzymatic activity is calculated.

The target in experiment [2] is T2, aromatase (Homo sapiens, UniProt P11511).
T2 construct: JEG-3 which constitutively expresses high amount of aromatase and steroid sulfatase; endogenous in cells; host or cells: JEG-3
T2 sequence (P11511 1-503): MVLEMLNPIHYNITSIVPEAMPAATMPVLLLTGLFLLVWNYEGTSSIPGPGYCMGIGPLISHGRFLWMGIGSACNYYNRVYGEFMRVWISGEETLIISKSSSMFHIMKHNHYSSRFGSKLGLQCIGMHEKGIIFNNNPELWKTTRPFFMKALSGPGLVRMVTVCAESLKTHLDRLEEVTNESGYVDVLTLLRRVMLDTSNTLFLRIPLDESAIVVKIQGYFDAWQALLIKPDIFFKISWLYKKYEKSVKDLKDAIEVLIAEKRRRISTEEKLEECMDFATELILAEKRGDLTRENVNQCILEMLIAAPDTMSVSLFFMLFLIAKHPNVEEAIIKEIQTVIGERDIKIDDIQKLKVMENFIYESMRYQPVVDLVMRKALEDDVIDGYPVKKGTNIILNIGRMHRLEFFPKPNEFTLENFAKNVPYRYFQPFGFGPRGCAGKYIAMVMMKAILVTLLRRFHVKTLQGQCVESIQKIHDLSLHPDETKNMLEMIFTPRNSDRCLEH
The experiment can be described thus: Aromatase inhibition assay in JEG-3 cells ([1β-3H] androstenedione, tritiated water release). It is filed as cell-based. Particulars: 1.25 hour incubation, duplicate. The protocol: as §1
For aromatase inhibition assay, JEG-3 cells were seeded into 96-well plates at 35,000 cells/well and maintained in MEM containing supplements. When reaching 80% confluent, the cells were washed once with serum-free MEM, incubated with [1β-^3H] androstenedione (A4, 0.2 μCi/ml) for 1.25 hour in the presence of the test substances added in a concentration series. The product, tritiated water (^3H2O), was separated using 2.5% (w/v) dextran-coated charcoal at 4-8° C. for 2 hours. The supernatant radioactivity was measured by a MicroBeta scintillation counter.
as §2

Take `N#Cc1cnc(Nn2cnc3cccnc32)nc1-c1ccc(OS(N)(=O)=O)cc1` [Example 47, 4-(2-(3H-Imidazo[4,5-b]pyridin-3-ylamino)-5-cyanopyrimidin-4-yl)phenyl sulfamate]: the negative logarithm of the IC50 (pIC50) in experiment [1] was 7.36; in experiment [2], 7.25.

On to `N#Cc1ccc(Cn2c(C(F)(F)F)nc3ccccc32)cc1-c1ccc(OS(N)(=O)=O)cc1` [Example 7, 2′-Cyano-5′-((2-(trifluoromethyl)-1H-benzo[d]imidazol-1-yl)methyl)biphenyl-4-yl sulfamate], for which the figures for the pIC50 in experiment [1] and in experiment [2] were 7.79 and less than 7.22, respectively.

For `N#Cc1ccc(Cn2cnc3cccnc32)nc1-c1ccc(OS(N)(=O)=O)cc1` [Example 14, 4-(6-((3H-Imidazo[4,5-b]pyridin-3-yl)methyl)-3-cyanopyridin-2-yl)phenyl sulfamate], the negative-log IC50 (pIC50) in experiment [1] is 7.66; in experiment [2], 8.15.

As to `N#Cc1ncc(Nn2cnc3cccnc32)cc1-c1ccc(OS(N)(=O)=O)cc1` [Example 43, 4-(5-(3H-Imidazo[4,5-b]pyridin-3-ylamino)-2-cyanopyridin-3-yl)phenyl sulfamate], the pIC50 was less than 7.22 in experiment [1] and 7.93 in experiment [2].

Consider `N#Cc1ccc(Cn2cnc3ccccc32)nc1-c1ccc(OS(N)(=O)=O)cc1` [Example 10, 4-(6-((1H-Benzo[d]imidazol-1-yl)methyl)-3-cyanopyridin-2-yl)phenyl sulfamate], for which the pIC50 in experiment [1] is 8.04; in experiment [2], 8.49.

For the compound `CN(c1ccc(C#N)c(-c2ccc(OS(N)(=O)=O)cc2)n1)n1cnc2cccnc21` [Example 49, 4-(6-((3H-Imidazo[4,5-b]pyridin-3-yl)(methyl)amino)-3-cyanopyridin-2-yl)phenyl sulfamate], the values for the negative logarithm of the IC50 (pIC50) in experiment [1] and in experiment [2] were less than 7.22 and 8.43, respectively.

Consider `CN(c1cnc(C#N)c(-c2ccc(OS(N)(=O)=O)cc2)c1)n1cnc2cccnc21` [Example 45, 4-(5-((3H-Imidazo[4,5-b]pyridin-3-yl)(methyl)amino)-2-cyanopyridin-3-yl)phenyl sulfamate], for which the negative-log IC50 (pIC50) in experiment [1] was less than 7.22; in experiment [2] it was 8.68.

On to `N#Cc1ccc(Cn2cnc3ccccc32)cc1-c1ccc(OS(N)(=O)=O)cn1` [Example 30, 6-(5-((1H-Benzo[d]imidazol-1-yl)methyl)-2-cyanophenyl)pyridin-3-yl sulfamate], for which the values for the pIC50 in experiment [1] and in experiment [2] were 8.14 and 8.23, respectively.

In the case of `N#Cc1ccc(Cn2nnc3cccnc32)cc1-c1ccc(OS(N)(=O)=O)cc1` [Example 8, 5′-((3H-[1,2,3]Triazolo[4,5-b]pyridin-3-yl)methyl)-2′-cyano-[1,1′-biphenyl]-4-yl sulfamate], the negative-log IC50 (pIC50) was 7.63 in experiment [1] and 8.20 in experiment [2].

`N#Cc1cnc(Cn2cnc3cc(F)c(F)cc32)nc1-c1ccc(OS(N)(=O)=O)cc1` [Example 52, 4-(5-Cyano-2-((5,6-difluoro-1H-benzo[d]imidazol-1-yl)methyl)pyrimidin-4-yl)phenyl sulfamate]: the pIC50 was 8.27 in experiment [1] and 8.54 in experiment [2].

As for `CN(c1cnc(C#N)c(-c2ccc(OS(N)(=O)=O)cc2)c1)n1cnc2ccccc21` [Example 39, 4-(5-((1H-Benzo[d]imidazol-1-yl)(methyl)amino)-2-cyanopyridin-3-yl)phenyl sulfamate], the figures for the negative logarithm of the IC50 (pIC50) in experiment [1] and in experiment [2] were less than 7.22 and 8.82, respectively.

Consider `CN(c1ccc(C#N)c(-c2ccc(OS(N)(=O)=O)cc2)c1)n1cnc2ccccc21` [Example 5, 5′-((1H-Benzo[d]imidazol-1-yl)(methyl)amino)-2′-cyano-[1,1′-biphenyl]-4-yl sulfamate], for which the pIC50 in experiment [1] was 7.59; in experiment [2] it was 8.49.

`Cc1nc2ccccc2n1Cc1ccc(C#N)c(-c2ccc(OS(N)(=O)=O)cc2)c1` [Example 3, 2′-Cyano-5′-((2-methyl-1H-benzo[d]imidazol-1-yl)methyl)biphenyl-4-yl sulfamate]: the pIC50 in experiment [1] is 7.72; in experiment [2], less than 7.22.

On to `CSc1ccc(-c2cc(Nn3cnc4ccccc43)ccc2C#N)cc1OS(N)(=O)=O` [Example 21, 5′-((1H-Benzo[d]imidazol-1-yl)amino)-2′-cyano-4-(methylthio)-[1,1′-biphenyl]-3-yl sulfamate], for which the pIC50 in experiment [1] was less than 7.22; in experiment [2], 8.66.

As to `N#Cc1ncc(Cn2cnc3cc(F)c(F)cc32)cc1-c1ccc(OS(N)(=O)=O)cc1` [Example 51, 4-(2-Cyano-5-((5,6-difluoro-1H-benzo[d]imidazol-1-yl)methyl)pyridin-3-yl)phenyl sulfamate], the pIC50 in experiment [1] is 7.81; in experiment [2] it was 8.66.

With `N#Cc1ccc(Nn2cnc3ccccc32)cc1-c1ccc(OS(N)(=O)=O)cn1` [Example 41, 6-(5-(1H-Benzo[d]imidazol-1-ylamino)-2-cyanophenyl)pyridin-3-yl sulfamate], the negative-log IC50 (pIC50) is 8.03 in experiment [1] and 8.70 in experiment [2].

On to `CN(c1ccc(C#N)c(-c2ccc(OS(N)(=O)=O)cc2)c1)n1nnc2ccccc21` [Example 13, 5′-((1H-Benzo[d][1,2,3]triazol-1-yl)(methyl)amino)-2′-cyanobiphenyl-4-yl sulfamate], for which the negative logarithm of the IC50 (pIC50) in experiment [1] was less than 7.22; in experiment [2] it was 7.88.

For the compound `CN(c1ncc(C#N)c(-c2ccc(OS(N)(=O)=O)cc2)n1)n1cnc2cccnc21` [Example 48, 4-(2-((3H-Imidazo[4,5-b]pyridin-3-yl)(methyl)amino)-5-cyanopyrimidin-4-yl)phenyl sulfamate], the pIC50 in experiment [1] is less than 7.22; in experiment [2], 8.24.

Consider `CN(c1ccc(C#N)c(-c2ccc(OS(N)(=O)=O)cn2)c1)n1cnc2ccccc21` [Example 37, 6-(5-((1H-Benzo[d]imidazol-1-yl)(methyl)amino)-2-cyanophenyl)pyridin-3-yl sulfamate], for which the figures for the pIC50 in experiment [1] and in experiment [2] were 7.38 and 8.62, respectively.

In the case of `N#Cc1ncc(Nn2cnc3ccccc32)nc1-c1ccc(OS(N)(=O)=O)cc1` [Example 32, 4-(6-(1H-Benzo[d]imidazol-1-ylamino)-3-cyanopyrazin-2-yl)phenyl sulfamate], the pIC50 in experiment [1] was 7.71; in experiment [2] it was 7.42.

Take `CSc1cc(-c2cc(N(C)n3cnc4ccccc43)ccc2C#N)ccc1OS(N)(=O)=O` [Example 27, 5′-((1H-Benzo[d]imidazol-1-yl)(methyl)amino)-2′-cyano-3-(methylthio)-[1,1′-biphenyl]-4-yl sulfamate]: the figures for the negative-log IC50 (pIC50) in experiment [1] and in experiment [2] were 7.75 and 8.34, respectively.

As to `N#Cc1ccc(Nn2cnc3cccnc32)nc1-c1ccc(OS(N)(=O)=O)cc1` [Example 46, 4-(6-(3H-Imidazo[4,5-b]pyridin-3-ylamino)-3-cyanopyridin-2-yl)phenyl sulfamate], the results for the negative-log IC50 (pIC50) in experiment [1] and in experiment [2] were 7.40 and 7.66, respectively.

Take `CSc1cc(-c2cc(Cn3cnc4ccccc43)ccc2C#N)ccc1OS(N)(=O)=O` [Example 18, 5′-((1H-Benzo[d]imidazol-1-yl)methyl)-2′-cyano-3-(methylthio)-[1,1′-biphenyl]-4-yl sulfamate]: the negative logarithm of the IC50 (pIC50) in experiment [1] is 7.58; in experiment [2] it was 8.92.

Consider `N#Cc1ccc(Cn2cnc3cccnc32)cc1-c1ccc(OS(N)(=O)=O)cn1` [Example 33, 6-(5-((3H-Imidazo[4,5-b]pyridin-3-yl)methyl)-2-cyanophenyl)pyridin-3-yl sulfamate], for which the pIC50 in experiment [1] was 7.75; in experiment [2], 8.05.

For the origin of these results see patent US9682941B2, “Substituted biphenyl analogues as dual inhibitors of aromatase and sulfatase” (ESTRYX PHARMA LIMITED, priority 2013, dated 2017).
